Measurements taken from US6368624B1, “Tableted product prepared by vacuum freeze-drying of a plant belonging to genus aloe of family Liliaceae and the method for producing same” (Yurika Incorporated, priority 1990, dated 2002).

System: human O-type erythrocytes
Assay: Erythrocyte agglutination, microtiter method
Assay type: cell-based
Settings: at a concentration of 1 mg/ml
Description: The inventive tablet and the control tablet obtained by drying under hot air circulation, were crushed into powders. 1.0 g each of the powders was dissolved in 10 ml of distilled water. After stirring, each of the resulting solutions was centrifuged at 4° C. for 30 minutes at 12,000 rpm.
The erythrocyte agglutination activity of each of the produced supernatants was examined in accordance with the microtiter method.
A buffer solution obtained by mixing phosphoric acid with physiological saline to pH 7.4 was added to 100 μl each of the supernatarits for two-stage dilution until 128-fold dilution was reached. To each diluted solution, 100 μof the 1% human O-type erythrocytes were added, and reaction was carried out at 37° C. for one hour to observe the progress of agglutination.

Concanavalin A was tested, and the Agglutination titer was 32 titer.
